According to patent US6822112B1, “Prostaglandin derivatives” (Taisho Pharmaceutical Co., Ltd., priority 1999, dated 2004):

Test system: EBTr [NBL-4] cell derived from bovine embryonic trachea
Assay: Measurement of cAMP production promoting action in EBTr [NBL-4] cell
Assay type: cell-based
Conditions: 1 × 10^−9 M concentration of compound added; EBTr [NBL-4] cells, 15 minutes with 0.5 mM 3-isobutyl-1-methylxanthine; cAMP EIA
Protocol: Measurement of cAMP production promoting action in EBTr [NBL-4] cell derived from bovine embryonic trachea
According to the method of Ito et al. in Br. J. Pharmacol., vol. 99, page 13 (1990), the following test was carried out.
That is, EBTr [NBL-4] cells derived from bovine embryonic trachea (produced by Dainippon Pharmaceutical Co.) were inoculated on 24-well plates (6×10^4 cells/well) (manufactured by Sumitomo Bakelite Co.), and cultured on a growth medium (MEM Earle's medium including 10% calf serum, 2 mM glutamine and non-essential amino acids) for 48 hours, followed by cultivation on 0.5 ml of a growth medium including the test compound and 0.5 mM 3-isobutyl-1-methylxanthine for 15 minutes. After the completion of the reaction, the cells were washed with a phosphate buffer (not including Ca^++ and Mg^++), 0.6 ml of 65% aqueous ethanol solution was added, followed by allowing to stand at 4° C. for an hour, and the resulting cAMP was extracted. After evaporation of the solvent by a centrifugal evaporator, the amount of cAMP was measured by using a cAMP EIA System (manufactured by Amersham Co.).

O=C(O)c1ccc(CCCC2C(Cl)CC(O)C2C#CC(O)C2CCCCC2)cc1 (stereo not drawn) [Compound 35, 9-Deoxy-9β-chloro-2,3,4,16,17,18,19,20-octanor-1,5-inter-p-phenylene-15-cyclohexyl-13,14-didehydro-PGF1α]
cAMP production promoting action (percent to PGD2): 150 percent to PGD2
